Drawing on ChEMBL document CHEMBL3739369, “Identification of Elaiophylin Skeletal Variants from the Indonesian Streptomyces sp. ICBB 9297” (2015), this text covers MIC for 8 molecules.

Molecules are shown by their SMILES. ≈ marks a conversion by molar mass, not a printed value.

Type in all cases: functional
For one experiment, the system named is Staphylococcus aureus. Description: Antimicrobial activity against Staphylococcus aureus ATCC 12600 for 17 to 48 hrs by MTT assay. (Formazan colour is commonly taken as a measure of viable cells.)
A further experiment relates to Bacillus subtilis. Description: Antimicrobial activity against Bacillus subtilis ATCC 6051 for 17 to 48 hrs by MTT assay.
Another experiment deals with Escherichia coli. Description: Antimicrobial activity against Escherichia coli ATCC 11775 for 17 to 48 hrs by MTT assay.
In experiment [1] the test system is Mycolicibacterium smegmatis. The experiment in a line: Antimicrobial activity against Mycobacterium smegmatis ATCC 14468 for 17 to 48 hrs by MTT assay.
The next experiment deals with Pseudomonas aeruginosa. The experiment in a line: Antimicrobial activity against Pseudomonas aeruginosa ATCC 9721 for 17 to 48 hrs by MTT assay.

As usually defined, the MIC is the lowest concentration that inhibits growth of the organism. As to `CC[C@@H]1[C@@H](C)O[C@@](OC)([C@@H](C)[C@H](O)[C@H](C)[C@H]2OC(=O)/C=C/C=C/[C@H](C)[C@@H]([C@@H](C)[C@@H](O)[C@H](C)[C@@]3(OC)C[C@@H](O[C@H]4C[C@H](O)[C@H](O)[C@H](C)O4)[C@H](CC)[C@@H](C)O3)OC(=O)/C=C/C=C/[C@@H]2C)C[C@H]1O[C@H]1C[C@H](O)[C@H](O)[C@H](C)O1`, the MIC against Staphylococcus aureus was 1.56 µg/mL (≈ 1.48 µM); against Bacillus subtilis, over 100 µg/mL; in the experiment on Escherichia coli, over 100 µg/mL; in experiment [1], over 100 µg/mL; against Pseudomonas aeruginosa, over 100 µg/mL.
For `CN[C@@H]1[C@@H](O[C@H]2O[C@H](CO)[C@@H](N)[C@H](O)[C@H]2O)O[C@H]2C[C@@H](N)[C@@H](O[C@H]3[C@H](O)[C@@H](O)[C@H](N)C[C@@H]3N)O[C@@H]2[C@@H]1O`, in experiment [1], the lowest concentration to inhibit growth (MIC) was 0.39 µg/mL (≈ 0.723 µM).
Take `CC[C@@H]1[C@@H](C)O[C@@](O)([C@@H](C)[C@H](O)[C@H](C)[C@H]2OC(=O)/C=C/C=C/[C@H](C)[C@@H]([C@@H](C)[C@@H](O)[C@H](C)[C@@]3(O)C[C@@H](O[C@H]4C[C@H](O)[C@H](O)[C@H](C)O4)[C@H](CC)[C@@H](C)O3)OC(=O)/C=C/C=C/[C@@H]2C)C[C@H]1O[C@H]1C[C@H](O)[C@H](O)[C@H](C)O1`: the MIC with Staphylococcus aureus is 0.78 µg/mL (≈ 0.761 µM); with Bacillus subtilis, over 100 µg/mL; against Escherichia coli it was over 100 µg/mL; in experiment [1], over 100 µg/mL; with Pseudomonas aeruginosa, over 100 µg/mL.
As for `CC[C@@H]1[C@@H](C)O[C@@](OC)([C@@H](C)[C@H](O)[C@H](C)[C@H]2OC(=O)/C=C/C=C/[C@H](C)[C@@H]([C@@H](C)[C@@H](O)[C@H](C)[C@@]3(OC)C[C@@H](O[C@H]4C[C@H](O)[C@H](O)[C@H](C)O4)[C@H](CC)[C@@H](C)O3)OC(=O)/C(C)=C/C=C/[C@@H]2C)C[C@H]1O[C@H]1C[C@H](O)[C@H](O)[C@H](C)O1`, the minimal inhibitory concentration (MIC) was 1.56 µg/mL (≈ 1.46 µM) with Staphylococcus aureus; over 100 µg/mL with Bacillus subtilis; over 100 µg/mL with Escherichia coli; 6.25 µg/mL (≈ 5.86 µM) in experiment [1]; over 100 µg/mL in the experiment on Pseudomonas aeruginosa.
In the case of `CC[C@@H]1[C@@H](C)O[C@@](OC)([C@@H](C)[C@H](O)[C@H](C)[C@H]2OC(=O)/C(C)=C/C=C/[C@H](C)[C@@H]([C@@H](C)[C@@H](O)[C@H](C)[C@@]3(OC)C[C@@H](O[C@H]4C[C@H](O)[C@H](O)[C@H](C)O4)[C@H](CC)[C@@H](C)O3)OC(=O)/C(C)=C/C=C/[C@@H]2C)C[C@H]1O[C@H]1C[C@H](O)[C@H](O)[C@H](C)O1`, the MIC against Staphylococcus aureus is 3.13 µg/mL (≈ 2.89 µM); against Bacillus subtilis, over 100 µg/mL; against Escherichia coli it was over 100 µg/mL; in experiment [1], over 100 µg/mL; in the experiment on Pseudomonas aeruginosa, over 100 µg/mL.
With `CC[C@@H]1[C@@H](C)O[C@@](O)([C@@H](C)[C@H](O)[C@H](C)[C@H]2OC(=O)/C=C/C=C/[C@H](C)[C@@H]([C@@H](C)[C@@H](O)[C@H](C)[C@@]3(O)C[C@@H](O[C@H]4C[C@H](O)[C@H](O)[C@H](C)O4)[C@H](CC)[C@@H](C)O3)OC(=O)/C(C)=C/C=C/[C@@H]2C)C[C@H]1O[C@H]1C[C@H](O)[C@H](O)[C@H](C)O1`, the MIC is 0.78 µg/mL (≈ 0.751 µM) in the experiment on Staphylococcus aureus; over 100 µg/mL with Bacillus subtilis; over 100 µg/mL in the experiment with Escherichia coli; 6.25 µg/mL (≈ 6.01 µM) in experiment [1]; over 100 µg/mL in the experiment with Pseudomonas aeruginosa.
Regarding `CC1(C)S[C@@H]2[C@H](NC(=O)[C@H](N)c3ccccc3)C(=O)N2[C@H]1C(=O)O` [AMPICILLIN], the minimum inhibitory concentration (MIC) is 0.78 µg/mL (≈ 2.23 µM) against Staphylococcus aureus; 0.78 µg/mL (≈ 2.23 µM) with Bacillus subtilis; 6.25 µg/mL (≈ 17.9 µM) in the experiment with Escherichia coli; over 100 µg/mL in experiment [1]; 1.56 µg/mL (≈ 4.46 µM) against Pseudomonas aeruginosa.
Take `CC[C@@H]1[C@@H](C)O[C@@](OC)([C@@H](C)[C@H](O)[C@H](C)[C@H]2OC(=O)/C=C/C=C/[C@H](C)[C@@H]([C@@H](C)[C@@H](O)[C@H](C)[C@@]3(O)C[C@@H](O[C@H]4C[C@H](O)[C@H](O)[C@H](C)O4)[C@H](CC)[C@@H](C)O3)OC(=O)/C=C/C=C/[C@@H]2C)C[C@H]1O[C@H]1C[C@H](O)[C@H](O)[C@H](C)O1`: the minimal inhibitory concentration (MIC) is 1.56 µg/mL (≈ 1.5 µM) against Staphylococcus aureus; over 100 µg/mL in the experiment on Bacillus subtilis; over 100 µg/mL in the experiment on Escherichia coli; over 100 µg/mL in experiment [1]; over 100 µg/mL against Pseudomonas aeruginosa.
